Results from ChEMBL document CHEMBL5712921, “Unlocking the Recovery Potential: JMJD3 Inhibition-Mediated SAPK/JNK Signaling Inactivation Supports Endogenous Oligodendrocyte-Lineage Commitment Post Mammalian Spinal Cord Injury” (Neurochem Res, 2021).
The source made the active and inactive calls.

How the values were obtained:
[1] = target: Lysine-specific demethylase 6B (Mus musculus) (UniProt Q5NCY0); assay: Inhibition of JMJD3 in mouse C17.2 cells at 20 uM for 3 hrs; assay type: cell-based
[2] = target: Lysine-specific demethylase 6B (Mus musculus) (UniProt Q5NCY0); assay: Inhibition of JMJD3 in mouse C17.2 cell assessed as increased number of olig2 positive cell at 10 uM by Hoechst staining analysis; assay type: cell-based
[3] = target: Lysine-specific demethylase 6B (Mus musculus) (UniProt Q5NCY0); assay: Inhibition of JMJD3 in mouse C17.2 cell assessed as decreased number of GFAP positive cell at 10 uM by Hoechst staining analysis; assay type: cell-based
[4] = target: Lysine-specific demethylase 6B (Mus musculus) (UniProt Q5NCY0); assay: Inhibition of JMJD3 in mouse C17.2 cell assessed as Olig2 expression at 10 uM by immunoblot analysis; assay type: cell-based
[5] = target: Lysine-specific demethylase 6B (Mus musculus) (UniProt Q5NCY0); assay: Inhibition of JMJD3 in mouse Neural Progenitor cell assessed as Olig2 expression at 10 uM by immunoblot analysis; assay type: cell-based
[6] = target: Lysine-specific demethylase 6B (Mus musculus) (UniProt Q5NCY0); assay: Inhibition of JMJD3 in mouse Neural Progenitor cell assessed as enhanced Olig2 expression at 10 uM by immunofluorescent staining; assay type: cell-based
Mus musculus [7] = assay: In vivo inhibition of JMJD3 in SCI mouse model assessed as upregulation of Olig2 expression administered at 100 mg/kg, ip for 5 days followed by subcutaneous administration for 7 days by immunoblot analysis; assay type: functional, organism-based; conditions: time 12.0 day
Mus musculus [8] = assay: In vivo inhibition of JMJD3 in SCI mouse model assessed as upregulation of H3K27me3 expression administered at 100 mg/kg, ip for 5 days followed by subcutaneous administration for 7 days by immunoblot analysis; assay type: functional, organism-based; conditions: time 12.0 day
Mus musculus [9] = species on record: Mus musculus; assay: […] of phosphorylated c-Jun at ser63 residue in SCI mouse model; assay type: functional, organism-based
Mus musculus [10] = assay: Remyelination activity of SCI mouse model assessed as olig2 positive tube like structure administered at 100 mg/kg, ip for 5 days followed by subcutaneous administration for 7 days by immunohistochemical analysis; conditions: time 12.0 day
[11] = target: Lysine-specific demethylase 6B (Mus musculus) (UniProt Q5NCY0); assay: […] of JMJD3 in mouse C17.2 cells at 10 uM for 3 hrs; assay type: cell-based

Chain of Lysine-specific demethylase 6B (Mus musculus) (Q5NCY0 whole entry): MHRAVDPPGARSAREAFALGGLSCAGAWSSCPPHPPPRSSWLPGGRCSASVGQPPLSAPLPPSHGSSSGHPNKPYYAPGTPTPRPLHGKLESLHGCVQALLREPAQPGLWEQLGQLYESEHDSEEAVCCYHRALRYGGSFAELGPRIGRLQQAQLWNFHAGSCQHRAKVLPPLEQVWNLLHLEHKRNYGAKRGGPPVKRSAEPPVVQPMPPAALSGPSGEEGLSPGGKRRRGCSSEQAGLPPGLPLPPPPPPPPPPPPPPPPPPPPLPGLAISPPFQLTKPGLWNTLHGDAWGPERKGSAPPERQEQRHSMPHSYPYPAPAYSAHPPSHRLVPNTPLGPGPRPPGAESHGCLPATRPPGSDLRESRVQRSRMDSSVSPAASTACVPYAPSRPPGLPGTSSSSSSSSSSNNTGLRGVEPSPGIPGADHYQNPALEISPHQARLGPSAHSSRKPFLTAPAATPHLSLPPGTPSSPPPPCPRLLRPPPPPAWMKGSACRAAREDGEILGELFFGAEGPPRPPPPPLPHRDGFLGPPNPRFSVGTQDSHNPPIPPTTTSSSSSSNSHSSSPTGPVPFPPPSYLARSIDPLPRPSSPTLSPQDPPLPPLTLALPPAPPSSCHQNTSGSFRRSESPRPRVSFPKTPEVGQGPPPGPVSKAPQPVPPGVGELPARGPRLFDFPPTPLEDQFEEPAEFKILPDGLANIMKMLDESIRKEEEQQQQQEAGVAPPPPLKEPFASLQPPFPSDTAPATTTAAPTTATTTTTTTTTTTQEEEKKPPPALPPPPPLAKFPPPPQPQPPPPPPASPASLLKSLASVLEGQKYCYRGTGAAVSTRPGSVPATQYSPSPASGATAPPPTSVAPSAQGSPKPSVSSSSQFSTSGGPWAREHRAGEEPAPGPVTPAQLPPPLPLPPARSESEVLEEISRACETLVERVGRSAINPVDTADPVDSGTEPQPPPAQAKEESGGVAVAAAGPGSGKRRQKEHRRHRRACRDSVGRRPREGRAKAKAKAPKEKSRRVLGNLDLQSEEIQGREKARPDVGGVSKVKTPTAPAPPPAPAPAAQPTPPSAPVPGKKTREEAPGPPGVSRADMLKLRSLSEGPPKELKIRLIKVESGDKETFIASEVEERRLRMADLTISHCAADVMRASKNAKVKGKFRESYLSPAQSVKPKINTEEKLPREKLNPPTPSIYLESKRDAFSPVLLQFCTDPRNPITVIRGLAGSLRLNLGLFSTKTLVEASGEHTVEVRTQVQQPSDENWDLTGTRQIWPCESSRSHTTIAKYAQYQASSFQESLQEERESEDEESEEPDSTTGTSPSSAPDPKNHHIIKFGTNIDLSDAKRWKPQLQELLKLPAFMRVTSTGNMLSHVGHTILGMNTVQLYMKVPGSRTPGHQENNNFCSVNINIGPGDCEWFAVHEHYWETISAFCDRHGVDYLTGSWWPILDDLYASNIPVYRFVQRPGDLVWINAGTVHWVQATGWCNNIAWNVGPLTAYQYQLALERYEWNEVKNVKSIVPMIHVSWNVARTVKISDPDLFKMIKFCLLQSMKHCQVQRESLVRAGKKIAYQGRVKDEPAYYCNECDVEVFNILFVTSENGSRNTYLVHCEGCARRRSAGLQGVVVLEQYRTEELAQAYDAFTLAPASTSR

O=C1c2ccccc2-c2n[nH]c3cccc1c23
active: inhibition [1]

CCOC(=O)CCNc1cc(N2CCc3ccccc3CC2)nc(-c2ccccn2)n1
active: inhibition [2] | inhibition [3] | inhibition [4] | inhibition [5] | inhibition [6] | inhibition (Mus musculus [7]) | inhibition (Mus musculus [8]) | Activity (Mus musculus [9]) | Activity (Mus musculus [10])

CC[C@]1(O)C[C@@H]2CN(CCc3c([nH]c4ccccc34)[C@@](C(=O)OC)(c3cc4c(cc3OC)N(C)[C@H]3[C@@](O)(C(=O)OC)[C@H](OC(C)=O)[C@]5(CC)C=CCN6CC[C@]43[C@@H]65)C2)C1
active: Activity [11]
